Literature values as cited in EP1085079A1, “Treatment compositions for fabrics” (THE PROCTER & GAMBLE COMPANY, priority 1999, dated 2001).

Structure (SMILES)	stability over a wide pH range
O=c1[nH]sc2ccccc12 [Proxel, 1,2-benzisothiazolin-3-one]	4-12
Cn1sc2c(c1=O)CCC2 [Promexal, 2-methyl-4,5-trimethylene-4-isothiazolin-3-one]	4-12
